This is an account of results in US20260042731A1, “(2,4-DICHLOROPHENOXY)ACETIC ACID ANALOGS” (CORTEVA AGRISCIENCE LLC, priority 2022, published 2026).

The structures appear in SMILES notation. Read-outs that look alike come from different tables or passages of the source.

A short description of data set [1]: Volatility of compounds measured by thermogravimetric analysis (TGA). It counts as physicochemical.
Data set [2] concerns Amaranthus rudis (AMATA), tall water hemp. Briefly: Postemergence herbicide evaluation, growth of Amaranthus rudis (AMATA). The following applies: Amaranthus tuberculatus, post-emergence, percent reduction in plant size vs untreated control, read-out: Ave. AMATA; for pest or weed control at 280 g/ha: 280 g ae/ha; for pest or weed control at 560 g/ha: 560 g ae/ha. In kind it is in vivo.

Data set [3] concerns Ambrosia artemisiifolia (AMBEL), common ragweed. Kind of data set: Postemergence herbicide evaluation, growth of Ambrosia artemisiifolia (AMBEL). In kind it is in vivo. The following applies: Ambrosia artemisiifolia, post-emergence, percent reduction in plant size vs untreated control, read-out: AVE. AMBEL; for pest or weed control at 280 g/ha: 280 g ae/ha; for pest or weed control at 560 g/ha: 560 g ae/ha.

Data set [4] has as its system Abutilon theophrasti (ABUTH), velvetleaf. Briefly: Postemergence herbicide evaluation, growth of Abutilon theophrasti (ABUTH). In kind it is in vivo. Conditions: Abutilon theophrasti, post-emergence, percent reduction in plant size vs untreated control, read-out: AVE. ABUTH; for pest or weed control at 280 g/ha: 280 g ae/ha; for pest or weed control at 560 g/ha: 560 g ae/ha.

Data set [5] concerns Chenopodium album (CHEAL), common lambsquarters. Briefly: Postemergence herbicide evaluation, growth of Chenopodium album (CHEAL). In kind it is in vivo. The following applies: Chenopodium album, post-emergence, percent reduction in plant size vs untreated control, read-out: Ave. CHEAL; for pest or weed control at 280 g/ha: 280 g ae/ha; for pest or weed control at 560 g/ha: 560 g ae/ha.

Data set [6] concerns glyphosate resistant Conyza canadensis (L.) (ERICA), horseweed. Kind of data set: Postemergence herbicide evaluation, growth of Conyza canadensis (ERICA). In kind it is in vivo. The following applies: Erigeron canadensis, post-emergence, percent reduction in plant size vs untreated control, read-out: Ave. ERICA; for pest or weed control at 280 g/ha: 280 g ae/ha; for pest or weed control at 560 g/ha: 560 g ae/ha.

Data set [7] relates to weeds ABUTH, AMATA, AMBEL, CHEAL, ERICA. Kind of data set: Postemergence herbicide evaluation, overall average % weed control across ABUTH, AMATA, AMBEL, CHEAL and ERICA. In kind it is in vivo. The following applies: post-emergence, average over five weeds, read-out: Overall Ave % Weed Control; for pest or weed control at 280 g/ha: 280 g ae/ha; for pest or weed control at 560 g/ha: 560 g ae/ha.

Data set [8] deals with Common Lambsquarters (CHEAL). Briefly: Greenhouse post-emergence mixture trials, percent visual control. Conditions: CHEAL, 21 DAA. It counts as in vivo.
The test system of a further data set is Velvetleaf (ABUTH). Described as above. It counts as in vivo. The following applies: Abutilon theophrasti, post-emergence, 504 h, ABUTH, 21 DAA; for pest or weed control at 150 g/ha: Mesotrione 150 g ai or ae/ha alone.

For the molecule `O=C(COc1ccc(Cl)cc1Cl)O/N=C/c1cccs1` [Compound A23], the “TGA Data (rate of weight loss, volatility)” value in [1] came out at 0.3728 µg/min.
Same read-out and setting: as for `O=C(COc1ccc(Cl)cc1Cl)ONC(=O)c1cccnc1` [Compound A19], the figure is 0.348 µg/min.
With `Cc1nc2ccccc2n1C(=O)COc1ccc(Cl)cc1Cl` [Compound D12], the pest or weed control at 280 g/ha in data set [2] (168 h, 7 DAA) amounted to 62.5%; in [2] (336 h, 14 DAA), 87.5%; in data set [2] (504 h, 21 DAA), 65%; in data set [3] (168 h, 7 DAA), 75%; in data set [3] (336 h, 14 DAA), 67.5%; in data set [3] (504 h, 21 DAA) it was 100%. Besides, the pest or weed control at 280 g/ha in data set [4] (168 h, 7 DAA) worked out at 47.5%; in data set [4] (336 h, 14 DAA), 67.5%; in data set [4] (504 h, 21 DAA), 67.5%; in [5] (168 h, 7 DAA) it was 80%; in [5] (336 h, 14 DAA), 98.5%; in data set [5] (504 h, 21 DAA), 90%. Further, the pest or weed control at 280 g/ha in [6] (168 h, 7 DAA) was 85%; in data set [6] (336 h, 14 DAA), 98.5%; in data set [6] (504 h, 21 DAA), 100%; in data set [7] (168 h, 7 DAA) it was 70%; in data set [7] (336 h, 14 DAA), 83.9%; in [7] (504 h, 21 DAA), 84.5%. Besides, the pest or weed control at 560 g/ha in data set [2] (168 h, 7 DAA) turned out to be 77.5%; in [2] (336 h, 14 DAA) it was 92.5%; in data set [2] (504 h, 21 DAA), 77.5%; in data set [3] (168 h, 7 DAA) it was 72.5%; in data set [3] (336 h, 14 DAA), 77.5%; in data set [3] (504 h, 21 DAA) it was 100%. Besides, the pest or weed control at 560 g/ha came to 67.5% in data set [4] (168 h, 7 DAA); 85% in data set [4] (336 h, 14 DAA); 96.5% in data set [4] (504 h, 21 DAA); 75% in data set [5] (168 h, 7 DAA); 98.5% in [5] (336 h, 14 DAA); 96% in data set [5] (504 h, 21 DAA). Moreover, the pest or weed control at 560 g/ha in data set [6] (168 h, 7 DAA) was determined as 85%; in data set [6] (336 h, 14 DAA), 99.5%; in data set [6] (504 h, 21 DAA) it was 100%; in [7] (168 h, 7 DAA), 75.5%; in [7] (336 h, 14 DAA), 90.6%; in data set [7] (504 h, 21 DAA) it was 94%.
In the case of `O=C(COc1ccc(Cl)cc1Cl)OCOC(=O)COc1ccc(Cl)cc1Cl` [Compound B15, Methylene bis(2-(2,4-dichlorophenoxy)acetate)], the “TGA Data (rate of weight loss, volatility)” value in data set [1] was determined as 0.3 µg/min.
As to `O=C(COc1ccc(Cl)cc1Cl)ONC(=O)c1ccc(Cl)cc1` [Compound A28], the “TGA Data (rate of weight loss, volatility)” value in data set [1] amounted to 0.3455 µg/min.
Same read-out and setting: for `O=C(COc1ccc(Cl)cc1Cl)Oc1ccncn1` [Compound E8] the value was 0.7322 µg/min.
As for `CS(=O)(=O)c1ccc(C(=O)C2C(=O)CCCC2=O)c([N+](=O)[O-])c1` [Mesotrione, 2-[4-(methylsulfonyl)-2-nitrobenzoyl]-1,3-cyclohexanedione, reference compound], the pest or weed control at 75 g/ha in data set [8] (Chenopodium album, post-emergence, 504 h, Trial 2 Trt 25: B2 0 g ae/ha, Mesotrione 75 g ai or ae/ha alone) was 100%; in the data set on Velvetleaf (ABUTH) (Trial 2 Trt 25, B2 0 g ae/ha, Mesotrione 75 g ai or ae/ha alone), 100%. In addition, the pest or weed control at 150 g/ha in data set [8] (Chenopodium album, post-emergence, 504 h, Trial 2 Trt 28: B2 0 g ae/ha, Mesotrione 150 g ai or ae/ha alone) turned out to be 100%; in the data set with Velvetleaf (ABUTH) (Trial 2 Trt 28, B2 0 g ae/ha) it was 100%; in the data set on Velvetleaf (ABUTH) (Trial Bridge 1 Trt 10, D10 0 g ae/ha), 100%. Also, the “% Control” value in data set [8] (Trial Bridge 1, mixing partner alone (D10 at 0 g ae/ha), Mesotrione 150 g ai or ae/ha) is recorded as 100%.
For the molecule `O=C(COc1ccc(Cl)cc1Cl)Oc1ccncc1` [Compound E15], the “TGA Data (rate of weight loss, volatility)” value in data set [1] is 0.03683 µg/min.
